Read-outs that look alike come from different tables or passages of the source. Each block holds one compound with its values, some of them ahead of it.
Columns and labels:
[1] = molecular target: T1, wild-type CD38 (cADPR hydrolase activity) (Homo sapiens, UniProt P28907, N100D/N164A/N209D/N219D); assay: Enzymatic assay for cADPR hydrolysis (inhibition of CD38-catalyzed cADPR hydrolysis, fluorimetric cycling assay); format: biochemical; settings: for Fold improvement of IC50 over N1-cIDPR (cADPR hydrolysis): relative to N1-cIDPR, IC50 276 µM
T1 construct: Crystal structure of human CD38 extracellular domain; made in house
T1 sequence (P28907 45-300 N100D/N164A/N209D/N219D limits assumed): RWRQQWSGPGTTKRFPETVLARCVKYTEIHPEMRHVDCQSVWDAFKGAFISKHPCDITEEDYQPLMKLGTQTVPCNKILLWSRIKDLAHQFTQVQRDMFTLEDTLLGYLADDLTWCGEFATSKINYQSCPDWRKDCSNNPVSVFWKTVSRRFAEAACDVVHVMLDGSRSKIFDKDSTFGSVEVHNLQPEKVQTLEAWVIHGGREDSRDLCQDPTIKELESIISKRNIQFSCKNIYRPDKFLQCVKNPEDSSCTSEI
Description: The reaction was stopped by the addition of 150 mM HCl. The precipitated protein was filtered, and the pH was neutralized with Tris base. After diluting the mixture 20-fold, the concentration of the unhydrolyzed cADPR present in the diluted reaction mixture was assayed by the fluorimetric cycling assay as previously described.

[2] = molecular target: T2, CD38 NAD+ glycohydrolase activity (Homo sapiens, UniProt P28907, N100D/N164A/N209D/N219D); assay: Enzymatic assay for NAD+ hydrolase (NADase) activity of CD38; format: biochemical; settings: 1 µM NAD+, 0.1 µg/mL CD38, 1 min, 20–24°C, pH 4.5; Figure S1; read-out: IC50, inhibition of NADase activity of CD38
T2 construct: Crystal structure of human CD38 extracellular domain; made in house
T2 sequence (P28907 45-300 N100D/N164A/N209D/N219D limits assumed): T1 sequence (P28907 45-300 N100D/N164A/N209D/N219D limits assumed)
Description: The reaction was stopped by addition of 150 mM HCl, filtered and assayed for NAD^+ by the fluorimetric cycling assay as previously described.

CD38 = molecular target: T3, CD38 (Homo sapiens, UniProt P28907, N100D/N164A/N209D/N219D); assay: Incubation with CD38, nucleotide profile by HPLC (stability towards cleavage); format: in vitro ADME; settings: HPLC after 18 h; data not shown
T3 construct: Crystal structure of human CD38 extracellular domain; made in house
T3 sequence (P28907 45-300 N100D/N164A/N209D/N219D limits assumed): T1 sequence (P28907 45-300 N100D/N164A/N209D/N219D limits assumed)

[3] = tested on: sea urchin egg homogenate; set-up: method as in PMID 11535079; settings: cited from earlier work
Jurkat T-cells = tested on: Jurkat T-cells; set-up: method as in PMID 15932322; settings: cited from earlier work
[4] = 1 µM cADPR, 2 µg/mL CD38, 10 min, 20–24°C, pH 4.5, read-out: IC50, inhibition of cADPR hydrolysis by CD38
[5] = 1 µM cADPR, 2 µg/mL CD38, pH 4.5, inhibitor tested 0–1 mM, read-out: IC50, inhibition of cADPR hydrolysis by CD38
[6] = extrapolated beyond the tested range 0–1 mM, read-out: IC50, inhibition of cADPR hydrolysis, estimated by projection

IC50 [1, 4]: 56 µM
Fold improvement of IC50 over N1-cIDPR (cADPR hydrolysis) [1]: over 5 fold
IC50 [2]: 21 µM
SMILES: Nc1nc2c(=O)n3cnc2n1[C@@H]1O[C@H](COP(=O)(O)OP(=O)(O)OC[C@H]2O[C@@H]3[C@H](O)[C@@H]2O)[C@@H](O)[C@H]1O [8-Amino N1-cIDPR, 8-amino N1-cIDPR]

Change in nucleotide profile after incubation with CD38 (CD38): no change in the nucleotide profile
SMILES: O=c1c2nc(Br)n3c2ncn1[C@@H]1O[C@H](COP(=O)(O)OP(=O)(O)OC[C@H]2O[C@@H]3[C@H](O)[C@@H]2O)[C@@H](O)[C@H]1O [8-Bromo N1-cIDPR, 8-bromo N1-cIDPR]

IC50 [1, 4]: 129 µM
SMILES: N=c1c2ncn3c2ncn1[C@@H]1C[C@H](COP(=O)(O)OP(=O)(O)OC[C@H]2O[C@@H]3[C@H](O)[C@@H]2O)[C@@H](O)[C@H]1O [cADPcR, cyclic ADP-carbocyclic ribose, reference compound]
Ca2+ release activity [3]: potent Ca^2+ release agent

IC50 [1, 5]: > 1000 µM
IC50 [1, 6]: ~2000 µM
SMILES: NCCCCNc1nc2c(=O)n3cnc2n1[C@@H]1O[C@H](COP(=O)(O)OP(=O)(O)OC[C@H]2O[C@@H]3[C@H](O)[C@@H]2O)[C@@H](O)[C@H]1O [8-(4-Aminobutane)amino N1-cIDPR, 8-(4-aminobutane)amino N1-cIDPR]

IC50 [1, 4]: 14 µM
Fold improvement of IC50 over N1-cIDPR (cADPR hydrolysis) [1]: ~20 fold
SMILES: O=c1c2nc[nH]c2ncn1[C@@H]1O[C@H](COP(=O)(O)O)[C@@H](O)[C@H]1O [N1-IMP, N1-inosine 5′-monophosphate]

IC50 [1, 4]: 7.6 µM
SMILES: Nc1nc2c(=O)n([C@@H]3O[C@H](COP(=O)(O)O)[C@@H](O)[C@H]3O)cnc2[nH]1 [8-Amino N1-IMP, 8-amino N1-IMP]

SMILES: O=c1c2ncn3c2ncn1[C@@H]1O[C@H](COP(=O)(O)OP(=O)(O)OC[C@H]2O[C@@H]3[C@H](O)[C@@H]2O)[C@@H](O)[C@H]1O [N1-cIDPR, cyclic inosine 5′-diphosphoribose]
Ca2+ release compared with cADPR (Jurkat T-cells): almost indistinguishable from Ca^2+ release induced by cADPR

IC50 [1, 5]: > 1000 µM
IC50 [1, 6]: ~1240 µM
SMILES: O=c1c2nc(I)[nH]c2ncn1[C@@H]1O[C@H](COP(=O)(O)O)[C@@H](O)[C@H]1O [8-Iodo N1-IMP, 8-iodo N1-IMP]

IC50 [1, 4]: 201 µM
SMILES: O=c1c2nc(Br)[nH]c2ncn1[C@@H]1O[C@H](COP(=O)(O)O)[C@@H](O)[C@H]1O [8-Bromo N1-IMP]
